Like-named read-outs stand apart in the source and are kept apart here. Square brackets hold non-standard residues; d marks the D form. Ends that are not written are not given here. Peptide text beside a SMILES is read from it. Abu = CC[C@H](N)C(=O)O
Columns and labels:
HUVEC [1] = test: HUVEC migration assay (RT-CIM); format: cell-based, human; settings: for Activity in Migration: Yes/No summary, active = inhibitory potential greater than 30%
How it was run: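 Real-time impedance (RT-CIM) transwell migration through fibronectin-coated (20 μg/mL) 8 μm membranes; 45,000 cells/well in serum-free medium ± peptides, fully supplemented EBM-2 as chemoattractant below. Cell index recorded over 20 h at 37 °C; ≥2 independent replicates, each in duplicate.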

[2] = test system: lymphatic endothelial cells (LEC); test: LEC migration assay; format: cell-based
Procedure: (§1) The inhibitory potential of the peptides was measured using a real time migration assay system based on electrical impedance (RT-CIM, ACEA Biosciences, CA). CIM 16 well plates (Roche, 05665817001) are composed of a top and bottom chamber separated by a microporous (8 μm) polycarbonate membrane. The membrane was coated with fibronectin (20 μg/mL), and 45,000 cells/well in serum free media with or without peptides were added to the top compartment. Media with chemoattractant (i.e., fully supplemented EBM-2) was added to the bottom compartment of the chamber and the plate was incubated at 37° C. for 20 hours. The sensors integrated on the bottom side of the membrane monitor and continuously record changes in impedance as the cells move through the membrane. The RT-CIM technology allows for easy quantification of cell migration by monitoring the cell index derived from the measured impedances. Assays were performed in at least two independent replicates and each replicate was performed using two experimental duplicates.

HUVEC [3] = format: cell-based, human; settings: for Activity in Proliferation: Yes/No summary
How it was run: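 HUVEC plated at 2000 cells/well overnight, then exposed to peptides in fully supplemented medium for three days. WST-1 added in serum-free EBM-2 for four hours and absorbance read at 450 nm. Percent live cells taken relative to untreated cells in complete medium with 0.2% DMSO.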

[4] = test system: lymphatic endothelial cells (LEC); test: LEC adhesion assay; format: cell-based
Procedure: (§2) Similar to the migration assays, the inhibition activity of the peptide in cellular adhesion was assessed using the RT-CIM technology. In this case, 25,000 cells/well were plated in 16 wells E-plates (Roche, Basel Switzerland) in the presence or absence of the peptide. The adhesion was monitored over time (3 hours) by measuring changes in the electrical impedance, which is a direct measure of the cells adhering on the electrodes. […] Assays were performed in at least two independent replicates and each replicate was performed using two experimental duplicates.

MDA-MB-231 xenograft = test: MDA-MB-231 orthotopic breast tumor xenograft; format: in vivo, SCID mice
Procedure: For primary tumor inhibition studies, 1−2×10^6 tumor cells were injected into 4-6 wk old female SCID mice. After the tumors reached a size of 100 mm^3 the animals were randomized into groups of 10 animals each. The animals were treated with vehicle, SP2012, SP2000, or SP2024. The peptides were administered subcutaneously daily. Dosing was continued for 3 or 4 weeks and tumor sizes were measured every 3 days using calipers. The tumor volume was estimated using the formula V=a^2b/2 where a and b are the smaller and larger diameters.
For the tumor xenograft assay, animals were housed and treated according to the approved animal protocol of the Institutional Care and Use Committee at Johns Hopkins Medical Institution (JHMI). Orthotopic breast tumors were initiated in SCID mice using MDA-MB-231 cells. 2×10^6 cells per 100 μL aliquot of single cell suspension were injected in the breast mannary fat pad. Tumors reached volumes of 75 mm^3 to 100 mm^3 in approximately 14-21 days. Mice were randomized and arranged in groups (8 mice per group) with similar tumor volumes (no statistical difference among averages) and treatment was commenced. Peptides were administered once per day intraperitoneally (i.p.) at doses of 10 mg/kg (subcutaneous delivery was also tested with certain peptides). Paclitaxel was administered at 5 mg/kg once a week, and to maintain the daily treatment regime PBS was administered on the non-treatment days. Tumors were measured every fourth day using calipers and the tumor volume was calculated using the formula V=ab^2/2, where a is the larger diameter and b is the smaller diameter.

[5] = test system: microvascular endothelial cells (MEC); test: MEC migration assay; format: cell-based
Procedure: as §1

[6] = test system: MDA-MB-231 breast cancer cells; test: MDA-MB-231 adhesion assay; format: cell-based
Procedure: as §2

HUVEC [7] = test: HUVEC tube formation assay on Matrigel; format: cell-based, human; settings: for Activity in Tube formation: Yes/No summary
How it was run: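 HUVEC (15,000/well) plated on polymerized Matrigel in complete media with or without peptide for 19 h at 37 °C. Tube networks imaged by microscopy, one random field per well, in triplicate wells across at least two independent experiments.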

[8] = test system: microvascular endothelial cells (MEC); test: MEC adhesion assay; format: cell-based
Procedure: as §2

[9] = test system: MDA-MB-231 breast cancer cells; test: MDA-MB-231 wound healing type migration assay (Oris Pro); format: cell-based
Procedure: Breast cancer cells MDA-MB-231 are not suitable for the RT-CIM type experiments due to their thin elongated phenotype, thus the inhibition of migration was investigated using a wound healing type assay. This assay was performed using the Oris Pro Migration assay (Platypus Technologies, CMA 1.101). Briefly, 20,000-25,000 cells/well in full media were added to the 96 well plate containing stoppers to block migration of cells to the center region of the wells. Cells were allowed to adhere for 4 hours, after which the stoppers were removed. Cells were washed one time with PBS and fully supplemented media, with or without compound, was added to the wells. […], cells were stained with calcein AM (0.5 μg/mL) (Invitrogen, CA) and the cells that migrated to the center of the well were quantified by fluorescence intensity measured using a Victor V plate reader (Perkin Elmer) and also imaged using a Leica or Nikon microscope.

HUVEC [10] = format: cell-based, human; settings: for Activity in Adhesion: Yes/No summary, active = inhibitory potential greater than 30%
How it was run: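 Adhesion of 25,000 cells per well, with or without peptide, followed by real-time electrical impedance on electrode plates over 3 hours. At least two independent replicates, each run in duplicate.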

[11] = test system: VEGF mediated retinal neovascularization; test: Rho/VEGF transgenic mice model of retinal neovascularization; format: in vivo
Procedure: The ocular Rho/VEGF transgenic mice model of wet age-related macular degeneration also was used to test some of the peptides. Transgenic mice in which the rhodopsin promoter drives expression of VEGF in photoreceptors have the onset of VEGF production at P7 and develop extensive NV along the outer surface of the retina by P21 (Okamoto et al., 1997; To be et al., 1998). Mice hemizygous for the transgene (n=15 for each dose) were given an intraocular injection of 1 μl of PBS containing 0.01, 0.1, or 1 μg of peptide or scramble peptide in one eye at P7 and P14 and at P21 the mice were anesthetized, perfused with fluorescein-labeled dextran, and the total area of neovascularization on the outer surface of the retina was measured on retinal flat mounts by image analysis as above.

[12] = test system: choroidal neovascularization; test: Laser-induced choroidal neovascularization model; format: in vivo, C57BL/6 mice; settings: 0.1 μg into a mouse eye
Procedure: The ocular laser-induced choroidal neovascularization (NV) model of wet age-related macular degeneration was used for testing. 5-6-week-old female pathogen-free C57BL/6 mice were anesthetized with ketamine hydrochloride (100 mg/kg body weight) and pupils were dilated. Laser photocoagulation (75-μm spot size, 0.1-sec duration, 120 mW) was performed in the 9, 12, and 3 o'clock positions of the posterior pole of each eye with the slit lamp delivery system of an OcuLight GL diode laser (Iridex, Mountain View, Calif.) and a handheld cover slip as a contact lens to view the retina. Production of a tissue bubble by the laser, which indicates rupture of Bruch's membrane, is an important factor in obtaining choroidal NV; therefore, only burns in which a bubble is produced are included in the study. […] At day 7 the mice that received the naked peptides were dosed again whereas the mice that received the particles were administered PBS. Intravitreous injections were done under a dissecting microscope with a Harvard Pump Microinjection System and pulled glass micropipettes. After 14 days, the mice were perfused with 1 mL of PBS containing 50 mg/mL of fluorescein-labeled dextran (2×10^6 Daltons average molecular weight; Sigma-Aldrich, St. Louis, Mo.) and choroidal flat mounts were examined by fluorescence microscopy. Images were captured with a Nikon Digital Still Camera DXM1200 (Nikon Instruments Inc., New York, N.Y.). Image analysis software (Image-Pro Plus; Media Cybernetics, Silver Spring, Md.) was used to measure the total area of choroidal NV at each rupture site with the investigator masked with respect to treatment group.

Compound: CC[C@H](NC(=O)[C@H](Cc1ccccc1)NC(=O)[C@H](CCSC)NC(=O)[C@H](Cc1ccccc1)NC(=O)[C@@H]1CCCN1C(=O)[C@H](CCSC)NC(=O)[C@@H](NC(=O)[C@H](CO)NC(=O)[C@H](Cc1ccccc1)NC(=O)[C@H](CCCNC(=N)N)NC(=O)[C@H](CCCNC(=N)N)NC(=O)[C@@H](N)CC(C)C)[C@@H](C)O)C(=O)N[C@@H](CC(N)=O)C(=O)N[C@H](C(=O)N[C@@H](CC(N)=O)C(=O)N[C@@H](CC(N)=O)C(=O)N[C@H](C(=O)N[C@@H](CC)C(=O)N[C@@H](CC(N)=O)C(=O)N[C@@H](Cc1ccccc1)C(N)=O)C(C)C)[C@@H](C)CC [SP2012, LRRFSTMPFMFAbuNINNVAbuNF] (H-LRRFSTMPFMF[Abu]NINNV[Abu]NF-NH2; N-terminus assumed)
- Migration Inhibition (5 uM) (HUVEC [1]; 5 uM peptide): 0% (5 uM)
- Migration Inhibition (50 uM) (HUVEC [1]; 50 uM peptide): 68%
- Activity in Migration (HUVEC [1]): Yes
- inhibition of migration of LEC [2]: strong
- IC50 (HUVEC [3]): 22 µM
- Activity in Proliferation (HUVEC [3]; HUVEC): Yes
- IC50 (HUVEC [3]; HUVEC, tables 5, 8-10 and text, read-out: IC50 ± 95% CI (μM), proliferation): 48.1 ± 23.1 µM
- inhibition of adhesion of LEC [4]: strong
- suppression of tumor growth (MDA-MB-231 xenograft; MDA-MB-231 xenograft in mice, 10 mg/kg daily): tumor growth was inhibited
- microvascular density (MDA-MB-231 xenograft; after completion of the treatment at 21 days): statistically different from one another
- MDA-MB-231 xenograft inhibition (MDA-MB-231 xenograft; mice): Active
- inhibition of migration of MEC [5]: quite active
- inhibition of adhesion of MDA-MB-231 cells [6]: strong
- Tube formation Inhibition (HUVEC [7]; (l0 uM) printed in the cell): Complete
- Activity in Tube formation (HUVEC [7]): Yes
- inhibition of adhesion of MEC [8]: quite active
- inhibition of migration of MDA-MB-231 cells [9]: strong
- Migration of MDA-MB-231 cells into the restricted area ([9]; 50 μM and 5 μM treatments, 17 hours of incubation): statistically significant versus the control
- Adhesion Inhibition (100 uM) (HUVEC [10]; HUVEC, 100 uM peptide): 93.14%
- Activity in Adhesion (HUVEC [10]; HUVEC): Yes

Compound: LRRFSTAPFAFININNVINF-NH2 [SP2036]
- Activity in Migration (HUVEC [1]): Yes
- IC50 (HUVEC [3]): 9.97 ± 8.3 µM
- loss of activity in proliferation compared to substitution of Methionine at position 10 (HUVEC [3]; HUVEC): 10 fold
- Activity in Proliferation (HUVEC [3]; HUVEC): Yes
- Activity in Tube formation (HUVEC [7]): Yes
- inhibition of VEGF mediated angiogenesis ([11]; 0.1 μg administered directly into the eye): about 70%
- area of retinal neovascularization in the Rho/VEGF model ([11]; 0.1 μg into a mouse eye): inhibited
- laser-induced choroidal neovascularization [12]: inhibited laser-induced choroidal neovascularization
- IC50 (HUVEC [10]; 3 h): 2.75 ± 1.22 µM
- Activity in Adhesion (HUVEC [10]; HUVEC): Yes

— patent US9056923B2, “Mimetic peptides derived from collagen type IV and their use for treating angiogenesis- and lymphagiogenesis-dependent diseases” (THE JOHNS HOPKINS UNIVERSITY, priority 2010, dated 2015)
